Source: the NIST ThermoML archive (doi:10.1016/j.jct.2008.07.008)

Columns and labels:
[1] = refractive index (Na D-line) (dimensionless); conditions: 101.33 kPa, Liquid, Standard Abbe refractometry
[2] = refractive index (Na D-line) (dimensionless); xn = mol fraction of the nth substance listed; conditions: 101 kPa, Liquid, Standard Abbe refractometry

N#Cc1ccccc1 [benzonitrile]
[1]
Conditions	refractive index
277.43 K	1.5321
278.33 K	1.5318
279.49 K	1.5312
280.36 K	1.5307
280.38 K	1.5307
280.86 K	1.5305
281.97 K	1.5299
284.13 K	1.5289

CCCCCCCC [octane]
[1]
Conditions	refractive index
277.8 K	1.404
279.68 K	1.4032
280.36 K	1.4028
280.51 K	1.4027
281.66 K	1.4021
282.65 K	1.4017
283.88 K	1.4012
284.73 K	1.4007

N#Cc1ccccc1 [benzonitrile] + CCCCCCCC
[2]
Conditions	refractive index
280.36 K, x1 = 0.092	1.4104
280.36 K, x1 = 0.244	1.4248
280.36 K, x1 = 0.344	1.4353
280.36 K, x1 = 0.558	1.4613
280.36 K, x1 = 0.644	1.4726
280.36 K, x1 = 0.762	1.4901
280.36 K, x1 = 0.821	1.4996
280.36 K, x1 = 0.927	1.5176
280.36 K, x1 = 1	1.5307
282.93 K, x1 = 0.558	1.4599
283.35 K, x1 = 0.344	1.4339
283.66 K, x1 = 0.558	1.4597
283.67 K, x1 = 0.344	1.4337
284.57 K, x1 = 0.344	1.4333
284.78 K, x1 = 0.558	1.4591
285.65 K, x1 = 0.344	1.4327
285.74 K, x1 = 0.558	1.4586
286.64 K, x1 = 0.558	1.4583
286.73 K, x1 = 0.344	1.4322
287.64 K, x1 = 0.558	1.4578
287.77 K, x1 = 0.344	1.4318
288.61 K, x1 = 0.558	1.4574
288.82 K, x1 = 0.344	1.4313

CCCCCCCC [octane] + N#Cc1ccccc1
Conditions	refractive index
[2], 280.36 K, x2 = 0	1.4028
